Source: patent US8377485B2, “Antimicrobial composition and use thereof” (Oligo Basics Industria e Comercio de Racao Ltda, priority 2007, dated 2013)

Legend:
bacteria [1] = experiment: Determination of sensitivity of bacteria (Table 9); type: cell-based; conditions: product at 30 ppm (column 12; columns 11-14 also Free Bacter 3 ppm, Prevent 5 and 3 ppm)
Experimental: (§1) The purpose was to determine the antimicrobial action of a combination of cashew nut liquid and ricinoleic acid, and the effects on yeast (Saccharomyces cerevisiae) during alcoholic fermentation, response to different dosages and under acidic conditions. The items below were evaluated: • Laboratory fermentation with Saccharomyces cerevisiae by evaluating the feasibility and growth of yeast, in addition to bacteria developed at different concentrations of the products and mixtures; • Evaluation of the deflocculation power of yeast in fermentations at several dosages of the products and mixtures; • Evaluation of different dosages in the test for Sensitivity of Bacteria to define the quantity of products and mixtures to be recommended in the fermentation process by comparing them to other antibiotics previously tested and approved being used in the current market; • Identification of the characteristics of products and mixtures during the handling; • Evaluation of products and mixtures at low pH by simulating the conventional treatment of the yeast milk. The studies were based on the cause vs. effect methodology, using the observation of the growth of microorganisms as a parameter for responses. […]

bacteria [2] = experiment: Determination of sensitivity of bacteria (Table 8); type: cell-based; conditions: product at 50, 40, 30 ppm (columns 10-12)
Experimental: as §1

E. tenella = experiment: Degree of intestinal lesion in inoculated chickens, E. tenella (Example 2); type: in vivo; conditions: 24th day of age; 0 no lesion, 4 maximum lesion; salinomycin 66 ppm, AC 1500 ppm
Source text: (§2) Seven hundred and twenty chickens were randomly distributed into four treatments with six repetitions each, with 30 animals in each repetition. The birds were placed in a conventional yard divided into boxes.
(§3) The four treatments were (1. Non-inoculated, without anticoccidial; 2. Inoculated without anticoccidial; 3. Inoculated-salinomycin (66 ppm); 4. inoculated-AC (1500 ppm)). The birds were inoculated at the 18th day of age with 0.5 liter of inocula containing 10,000, 9,000, and 8,000 sporulated oocysts of Eimeria tenella, Eimeria maxima, and Eimeria acervulina, respectively. This solution was mixed with the feed and offered to each group of 30 birds. At the 24th day of age, the degree of intestinal lesion was evaluated (0—no lesion, 4—maximum lesion). The AC composition was 12% castor oil, 40% cashew nut liquid, and 48% carrier.
(§4) The experimental design utilized seven hundred and twenty chickens which were randomly distributed into four treatments and six repetitions. The averages were compared using the SNK test (Student-Newman-Keuls).

E. acervulina = experiment: Degree of intestinal lesion in inoculated chickens, E. acervulina (Example 2); type: in vivo; conditions: 24th day of age; 0 no lesion, 4 maximum lesion; salinomycin 66 ppm, AC 1500 ppm
Source text: as §2, §3, §4

E. maxima = experiment: Degree of intestinal lesion in inoculated chickens, E. maxima (Example 2); type: in vivo; conditions: 24th day of age; 0 no lesion, 4 maximum lesion; salinomycin 66 ppm, AC 1500 ppm
Source text: as §2, §3, §4

[3] = system: Eimeria tenella, Eimeria maxima, and Eimeria acervulina; experiment: Performance of chickens inoculated with Eimeria oocysts, first to 40th day of age (Example 2); type: in vivo; conditions: salinomycin 66 ppm, AC 1500 ppm, inoculated at 18th day
Source text: as §2, §3, §4

`CCCCCC[C@@H](O)C/C=C\CCCCCCCC(=O)O` [Product P2, Ricinoleic Acid] was tested, and the “Performance in sensitivity of bacteria test” value (bacteria [1]) was “negative results” and the “Performance in sensitivity of bacteria test” value (bacteria [2]) was “negative results”.
`CC[C@@H](C(=O)[C@@H](C)[C@@H](O)[C@H](C)[C@@H]1O[C@@H]([C@@H](CC)C(=O)O)CC[C@@H]1C)[C@H]1O[C@]2(C=C[C@@H](O)[C@]3(CC[C@@](C)([C@H]4CC[C@](O)(CC)[C@H](C)O4)O3)O2)[C@H](C)C[C@@H]1C` [salinomycin] was tested, and the “Degree of intestinal lesion, E. tenella” value (E. tenella) was 1.61 a, the “Degree of intestinal lesion, E. acervulina” value (E. acervulina) was 0.72 b and the “Degree of intestinal lesion, E. maxima” value (E. maxima) was 0.72 a. It also gave a Final weight ([3]; 40th day of age) of 2305 b g, an Alimentary conversion ([3]; first to 40th day of age) of 1.78 a and an Ingestion ([3]; first to 40th day of age) of 4018 bc g. It also gave a Viability ([3]; first to 40th day of age) of 97.5 a and a Weight gain ([3]; first to 40th day of age) of 2261 b g.
